# Measured values from ChEMBL document CHEMBL4364273, “Discovery of SHR1653, a Highly Potent and Selective OTR Antagonist with Improved Blood-Brain Barrier Penetration” (ACS Med Chem Lett, 2019).
# Tests used:
# [1] = Drug concentration in Sprague-Dawley rat brain by LC-MS/MS analysis; assay type: ADME, tissue-based; conditions: in vivo
# [2] = target: T1, Cytochrome P450 3A4 (Homo sapiens, UniProt P08684); experiment: Inhibition of human recombinant CYP3A4 using midazolam as substrate; assay type: ADME
# T1 sequence (P08684 whole entry): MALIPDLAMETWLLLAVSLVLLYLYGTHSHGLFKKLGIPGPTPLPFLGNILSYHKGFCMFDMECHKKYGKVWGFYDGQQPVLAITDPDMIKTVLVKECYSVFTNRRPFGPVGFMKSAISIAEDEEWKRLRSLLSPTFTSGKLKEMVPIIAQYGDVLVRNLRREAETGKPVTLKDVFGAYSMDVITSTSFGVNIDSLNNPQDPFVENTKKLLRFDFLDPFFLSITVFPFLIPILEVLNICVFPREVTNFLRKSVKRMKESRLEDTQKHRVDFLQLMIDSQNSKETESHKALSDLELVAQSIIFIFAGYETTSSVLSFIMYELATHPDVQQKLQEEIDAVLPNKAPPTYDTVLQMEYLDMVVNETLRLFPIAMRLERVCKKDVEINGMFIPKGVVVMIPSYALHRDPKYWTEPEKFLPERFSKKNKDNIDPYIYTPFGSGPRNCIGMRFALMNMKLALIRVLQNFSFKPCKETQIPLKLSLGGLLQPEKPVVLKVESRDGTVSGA
# [3] = AUC (0 to 24 hrs) in anesthetized oxytocin-induced uterine contraction Sprague-Dawley rat model at 30 mg/kg, po; assay type: ADME, organism-based; design: dose 30 mg/kg, time < 24 hr, route oral; conditions: in vivo
# [4] = AUC (0 to 24 hrs) in nude mouse at 4 mg/kg, po by LC-MS/MS analysis; assay type: ADME, organism-based; design: time < 24 hr, dose 4 mg/kg, route oral; conditions: in vivo
# [5] = target: T1, Cytochrome P450 3A4; experiment: Inhibition of human recombinant CYP3A4 using testosterone as substrate; assay type: ADME
# [6] = Unbound brain-to-plasma concentration ratio in Sprague-Dawley rat by LC-MS/MS analysis; assay type: ADME, cell-free; conditions: read-out: K(p,uu,brain)
# [7] = AUC (0 to 24 hrs) in Beagle dog at 20 mg/kg, po by LC-MS/MS analysis; assay type: ADME, organism-based, Canis lupus familiaris; design: time < 24 hr, dose 20 mg/kg, route oral; conditions: in vivo
# [8] = AUC (0 to 24 hrs) in Sprague-Dawley rat at 150 mg/kg, po by LC-MS/MS analysis; assay type: ADME, organism-based; design: time < 24 hr, dose 150 mg/kg, route oral; conditions: in vivo
# [9] = Acute toxicity in rat assessed as effect on body weight at up to 300 mg/kg measured for 7 days; assay type: organism-based; conditions: in vivo, 168 h
# [10] = Hepatic clearance in dog liver microsomes by LC-MS/MS analysis; assay type: ADME, Canis lupus familiaris, Microsome
# [11] = species: Homo sapiens; experiment: Selectivity ratio of IC50 for human vasopressin V2 receptor expressed in HEK293 cells to IC50 for human OTR expressed in HEK293 cells; assay type: cell-based
# [12] = AUC (0 to 24 hrs) in Beagle dog at 2 mg/kg, po by LC-MS/MS analysis; assay type: ADME, organism-based, Canis lupus familiaris; design: time < 24 hr, dose 2 mg/kg, route oral; conditions: in vivo
# [13] = Cmax in Beagle dog at 2 mg/kg, po measured for 24 hrs by LC-MS/MS analysis; assay type: ADME, organism-based, Canis lupus familiaris; design: dose 2 mg/kg, route oral; conditions: in vivo
# [14] = Cmax in Sprague-Dawley rat at 30 mg/kg, po measured for 24 hrs by LC-MS/MS analysis; assay type: ADME, organism-based; design: dose 30 mg/kg, route oral; conditions: in vivo
# [15] = Clearance in Beagle dog at 1 mg/kg, iv measured for 24 hrs by LC-MS/MS analysis; assay type: ADME, organism-based, Canis lupus familiaris; conditions: in vivo
# [16] = test system: Rattus norvegicus; experiment: Anti-premature ejaculation activity in anesthetized oxytocin-induced uterine contraction Sprague-Dawley rat model assessed as decrease in intraluminal uterine pressure at 30 mg/kg, po treated for 20 mins and 1 hr later treated with oxytocin and measured for 15 to 30 mins relative to control; assay type: functional
# [17] = Half-life in Beagle dog at 2 mg/kg, po measured for 24 hrs by LC-MS/MS analysis; assay type: ADME, organism-based, Canis lupus familiaris; conditions: in vivo
# [18] = Safety index, ratio of NOAEL in rat to EC50 for inhibition of oxytocin-induced contractile response in po dosed Sprague-Dawley rat; assay type: toxicity, organism-based; conditions: in vivo
# [19] = Tmax in nude mouse at 4 mg/kg, po measured for 24 hrs by LC-MS/MS analysis; assay type: ADME, organism-based; conditions: in vivo
# [20] = Clearance in nude mouse at 1 mg/kg, iv measured for 24 hrs by LC-MS/MS analysis; assay type: ADME, organism-based; conditions: in vivo
# [21] = Half-life in Sprague-Dawley rat at 30 mg/kg, po measured for 24 hrs by LC-MS/MS analysis; assay type: ADME, organism-based; conditions: in vivo
# [22] = Hepatic clearance in human liver microsomes by LC-MS/MS analysis; assay type: ADME, Microsome
# [23] = Hepatic clearance in mouse liver microsomes by LC-MS/MS analysis; assay type: ADME, Microsome
# [24] = Cmax in Sprague-Dawley rat at 150 mg/kg, po measured for 24 hrs by LC-MS/MS analysis; assay type: ADME, organism-based; design: dose 150 mg/kg, route oral; conditions: in vivo
# [25] = target: T2, Cytochrome P450 1A2 (Homo sapiens, UniProt P05177); experiment: Inhibition of human recombinant CYP1A2; assay type: ADME
# T2 sequence (P05177 whole entry): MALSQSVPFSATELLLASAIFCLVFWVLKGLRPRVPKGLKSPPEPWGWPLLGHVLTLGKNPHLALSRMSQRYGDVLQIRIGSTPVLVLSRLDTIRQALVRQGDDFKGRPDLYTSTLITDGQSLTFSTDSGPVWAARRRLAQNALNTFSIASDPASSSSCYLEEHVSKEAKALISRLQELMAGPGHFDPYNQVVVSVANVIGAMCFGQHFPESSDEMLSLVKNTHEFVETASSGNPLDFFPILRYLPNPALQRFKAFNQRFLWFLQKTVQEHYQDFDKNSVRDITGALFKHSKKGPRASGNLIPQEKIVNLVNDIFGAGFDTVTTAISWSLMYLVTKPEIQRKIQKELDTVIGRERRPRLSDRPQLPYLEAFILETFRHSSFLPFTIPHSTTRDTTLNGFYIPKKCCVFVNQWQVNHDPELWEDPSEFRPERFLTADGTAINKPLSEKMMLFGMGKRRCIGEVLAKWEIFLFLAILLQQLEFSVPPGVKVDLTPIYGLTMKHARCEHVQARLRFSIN
# [26] = Tmax in Beagle dog at 2 mg/kg, po measured for 24 hrs by LC-MS/MS analysis; assay type: ADME, organism-based, Canis lupus familiaris; conditions: in vivo
# [27] = Solubility of compound in FASSIF at pH 6.5; assay type: physicochemical
# [28] = Unbound fraction in Sprague-Dawley rat plasma by LC-MS/MS analysis; assay type: ADME, cell-free
# [29] = Acute toxicity in rat assessed as increase in urinary output at 900 mg/kg measured for 7 days; assay type: organism-based; conditions: in vivo, 168 h
# [30] = Cmax in Sprague-Dawley rat at 2 mg/kg, po measured for 24 hrs by LC-MS/MS analysis; assay type: ADME, organism-based; design: dose 2 mg/kg, route oral; conditions: in vivo
# [31] = species: Homo sapiens; experiment: Selectivity ratio of IC50 for human vasopressin V1A receptor expressed in HEK293 cells to IC50 for human OTR expressed in HEK293 cells; assay type: cell-based
# [32] = test system: Rattus norvegicus; experiment: Anti-premature ejaculation activity in anesthetized oxytocin-induced uterine contraction Sprague-Dawley rat model assessed as decrease in intraluminal uterine pressure at 10 mg/kg, po treated for 20 mins and 1 hr later treated with oxytocin and measured for 15 to 30 mins relative to control; assay type: functional
# [33] = species: Homo sapiens; experiment: Selectivity ratio of IC50 for human vasopressin V1B receptor expressed in HEK293 cells to IC50 for human OTR expressed in HEK293 cells; assay type: cell-based
# [34] = AUC (0 to 24 hrs) in Sprague-Dawley rat at 30 mg/kg, po by LC-MS/MS analysis; assay type: ADME, organism-based; design: dose 30 mg/kg, time < 24 hr, route oral; conditions: in vivo
# [35] = target: Cytochrome P450 2C9 (Homo sapiens, UniProt P11712); experiment: Inhibition of human recombinant CYP2C9; assay type: ADME
# Chain of Cytochrome P450 2C9 (P11712 whole entry): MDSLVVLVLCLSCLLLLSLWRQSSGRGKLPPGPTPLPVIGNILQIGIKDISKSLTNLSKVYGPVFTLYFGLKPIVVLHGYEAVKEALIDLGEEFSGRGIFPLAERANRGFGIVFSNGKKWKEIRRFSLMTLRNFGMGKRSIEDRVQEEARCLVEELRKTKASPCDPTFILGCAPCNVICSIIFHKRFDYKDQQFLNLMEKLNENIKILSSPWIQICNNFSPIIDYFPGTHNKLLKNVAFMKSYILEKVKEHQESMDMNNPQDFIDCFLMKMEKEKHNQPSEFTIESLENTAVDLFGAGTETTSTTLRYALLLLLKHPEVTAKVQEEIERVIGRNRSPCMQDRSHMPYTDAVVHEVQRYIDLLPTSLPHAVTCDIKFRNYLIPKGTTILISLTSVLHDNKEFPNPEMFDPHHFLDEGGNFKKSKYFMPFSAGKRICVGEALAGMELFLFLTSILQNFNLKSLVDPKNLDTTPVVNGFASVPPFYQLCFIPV
# [36] = Hepatic clearance in rat liver microsomes by LC-MS/MS analysis; assay type: ADME, Microsome
# [37] = Half-life in Sprague-Dawley rat at 150 mg/kg, po measured for 24 hrs by LC-MS/MS analysis; assay type: ADME, organism-based; conditions: in vivo
# [38] = test system: Rattus norvegicus; experiment: Anti-premature ejaculation activity in anesthetized oxytocin-induced uterine contraction Sprague-Dawley rat model assessed as decrease in intraluminal uterine pressure at 100 mg/kg, po treated for 20 mins and 1 hr later treated with oxytocin and measured for 15 to 30 mins relative to control; assay type: functional
# [39] = Acute toxicity in rat assessed as effect on clinical parameters up to 300 mg/kg measured for 7 days; assay type: organism-based; conditions: in vivo, 168 h
# [40] = Plasma concentration in Sprague-Dawley rat by LC-MS/MS analysis; assay type: ADME, cell-free
# [41] = Tmax in Sprague-Dawley rat at 30 mg/kg, po measured for 24 hrs by LC-MS/MS analysis; assay type: ADME, organism-based; conditions: in vivo
# [42] = Acute toxicity in rat assessed as effect on blood chemistry parameters up to 300 mg/kg measured for 7 days; assay type: organism-based; conditions: in vivo, 168 h
smiles,measurement,setting,value
COCc1nnc(N2C[C@@H]3C[C@]3(c3ccc(F)cc3Cl)C2)n1-c1ccc(OC)nc1,Ct,[1],229 ng/g
same,IC50,[2],> 30 µM
same,AUC(0-t) at 24 h,[3],28300 ng·h/mL
same,AUC(0-t) at 24 h,[4],548 ng·h/mL
same,IC50,[5],20 µM
same,Kp uu,[6],0.188
same,AUC(0-t) at 24 h,[7],58700 ng·h/mL
same,AUC(0-t) at 24 h,[8],57200 ng·h/mL
same,Activity,[9],Non-Toxic
same,CLhep predicted,[10],20.3 mL/min/kg
same,Ratio IC50,[11],2170
same,AUC(0-t) at 24 h,[12],3830 ng·h/mL
same,Cmax,[13],930 ng/mL
same,Cmax,[14],3300 ng/mL
same,clearance,[15],7.2 mL/min/kg
same,inhibition in vivo at 30 mg/kg,[16],65%
same,half-life,[17],4.64 h
same,selectivity ratio,[18],10
same,Tmax,[19],0.5 h
same,clearance,[20],31.3 mL/min/kg
same,half-life,[21],2.23 h
same,CLhep predicted,[22],14.8 mL/min/kg
same,CLhep predicted,[23],77.4 mL/min/kg
same,Cmax,[24],14000 ng/mL
same,IC50,[25],> 30 µM
same,Tmax,[26],0.75 h
same,solubility,[27],108 µM
same,fraction unbound,[28],0.0146
same,Activity,[29],Toxic
same,Cmax,[30],350 ng/mL
same,Ratio IC50,[31],192
same,inhibition in vivo at 10 mg/kg,[32],17.6%
same,Ratio IC50,[33],2500
same,AUC(0-t) at 24 h,[34],16100 ng·h/mL
same,IC50,[35],> 30 µM
same,CLhep predicted,[36],54.9 mL/min/kg
same,half-life,[37],3.24 h
same,inhibition in vivo at 100 mg/kg,[38],77.5%
same,Activity,[39],Non-Toxic
same,Cp,[40],1379 ng/mL
same,Tmax,[41],0.63 h
same,Activity,[42],Non-Toxic
